Experimental data published in patent US9910050B2, “Mutant smoothened and methods of using the same” (Curis, Inc., priority 2009, dated 2018).
Entries after “also recorded” stand apart in the source; their conditions may differ.

Legend:
[1] = system: Smo localization to the primary cilium in S12 cells; experiment: Smo immunostaining, ciliary localization in S12 cells; conditions: 16 h; for ciliary accumulation of Smo in the absence of Hh stimulation: no Shh; for effect on Smo localization compared with GDC-0449: absence or presence of Shh, 1 μM
[2] = biological target: T1, SMO-D473H (Homo sapiens, UniProt Q99835, D473H); experiment: Gli-luciferase reporter assay in C3H10T½ cells transfected with SMO-D473H; format: cell-based; conditions: for activity against SMO-D473H, inhibition of Gli-luciferase activity: screen at 1 μM compound
T1 construct: expressed in transfected cells; host or cells: C3H10T½ cells (reporter assay)
T1 sequence (Q99835 28-787 D473H): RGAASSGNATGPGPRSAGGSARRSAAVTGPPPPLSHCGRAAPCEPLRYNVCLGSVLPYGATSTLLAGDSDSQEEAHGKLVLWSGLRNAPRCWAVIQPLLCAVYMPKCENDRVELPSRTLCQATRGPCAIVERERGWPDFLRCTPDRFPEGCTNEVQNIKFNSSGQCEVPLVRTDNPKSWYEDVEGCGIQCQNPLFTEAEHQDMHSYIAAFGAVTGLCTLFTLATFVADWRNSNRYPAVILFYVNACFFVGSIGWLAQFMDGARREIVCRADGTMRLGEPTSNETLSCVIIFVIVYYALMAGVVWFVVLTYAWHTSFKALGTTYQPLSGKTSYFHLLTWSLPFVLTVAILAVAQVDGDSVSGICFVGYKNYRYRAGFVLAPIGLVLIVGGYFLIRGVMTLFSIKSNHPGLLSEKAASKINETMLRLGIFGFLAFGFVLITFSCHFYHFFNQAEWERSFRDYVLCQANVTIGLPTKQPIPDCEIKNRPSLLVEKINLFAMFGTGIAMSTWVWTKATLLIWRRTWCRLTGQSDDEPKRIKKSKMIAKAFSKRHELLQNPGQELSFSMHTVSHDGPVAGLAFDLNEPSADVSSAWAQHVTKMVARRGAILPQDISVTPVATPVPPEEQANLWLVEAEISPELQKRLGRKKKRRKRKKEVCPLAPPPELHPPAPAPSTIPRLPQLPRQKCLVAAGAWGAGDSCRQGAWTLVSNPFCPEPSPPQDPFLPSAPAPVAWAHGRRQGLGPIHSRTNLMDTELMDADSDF
Protocol: For the PTCH1 inhibition experiments, cells were transfected with an additional 200 ng of DNA containing varying ratios of PTCH1 to eGFP expression constructs. For the NF-κB and SV40 reporter assays, Gli-BS was replaced with either pGL4.32 or pGL3-Promoter. Six hours later, cells were collected by trypsin treatment and each well was redistributed over four wells of a 12-well plate. The FBS content of the culture medium was reduced to 0.5% the following morning to induce formation of primary cilia, and small molecule Hh inhibitors were added at indicated concentrations. […] Values were divided by Renilla luciferase activities to normalize for transfection efficiency and are shown as the mean of three separate experiments±1 standard deviation.

[3] = Mouse pharmacokinetic study; format: in vivo; conditions: for pharmacokinetic properties in mice: oral
Protocol: Mouse pharmacokinetic studies. […] Briefly, 24 female CD-1 mice weighing 25 to 33 g at study initiation were given a single oral 100 mg kg−1 dose of either compound 4 or 5 as a suspension in 0.5% methylcellulose with 0.2% Tween-80 (MCT). Blood samples (n=3 mice per time point) were collected in tubes containing EDTA as an an anticoagulant by terminal cardiac puncture under isoflurane at the following time points: 5, 15 and 30 min; and 1, 3, 6, 9 and 24 h post-dose. Blood samples were centrifuged to collect plasma, which was stored at −80° C. until drug concentrations were quantified by LC/MS/MS.

[4] = system: Smo localization to the primary cilium; conditions: literature reports; cited from earlier work
[5] = system: SG274 allografts (Smo-D477G); experiment: Tumor growth of subcutaneous SG274 MB allografts; format: in vivo, mouse; conditions: compound 5 100 mg kg−1 once daily, oral
Source text: (§1) Drug treatment of animals with MB allografts. Tumor-hearing animals were generated via serial subcutaneous propagation of murine Ptch+/−; p53−/− MB tumor lines (Wetmore C. et al. (2001) Cancer Res. 61:513-516). Subcutaneous tumors 1500-2000 mm3 were excised from donor mice under aseptic conditions, minced in High Glucose DMEM by repeated slicing and chopping with two #10 scalpels and passed through a cell dissociation sieve (Sigma, CD1-1KT). The resulting single cell suspension was washed twice in High Glucose DMEM and filtered through a 70 μm nylon cell strainer (BD Falcon) before counting in a Vi-CELL cell viability analyzer (Beckman Coulter). Approximately 2.5-4×10^6 live cells in a 100 μl volume were injected subcutaneously into the right lateral thorax of 7 to 10-week-old female CD-1 nude mice (CRL). Tumor dimensions were measured with Ultra Cal1 IV calipers (Fred V. Fowler Company Inc., Newton, Mass.) and tumor volume was calculated using the formula v=0.5×a×b2, where a and b are the […] perpendicular tumor diameters, respectively. When tumors reached 125-350 mm^3 in volume, animals were separated into treatment groups with similarly sized tumors and drug administration was initiated. […]

[6] = system: Gli1 mRNA in SG274 tumors; experiment: Gli1 mRNA levels by qRT-PCR in SG274 tumors; format: in vivo, mouse; conditions: compound 5 100 mg kg−1 once daily, collected 6 hours after last treatment
[7] = biological target: T2, endogenous SMO (Mus musculus, UniProt P56726); experiment: Inhibition of endogenous SMO following stimulation by Hh ligand; format: cell-based; conditions: data not shown
T2 construct: endogenous in cells
T2 sequence (P56726 33-793): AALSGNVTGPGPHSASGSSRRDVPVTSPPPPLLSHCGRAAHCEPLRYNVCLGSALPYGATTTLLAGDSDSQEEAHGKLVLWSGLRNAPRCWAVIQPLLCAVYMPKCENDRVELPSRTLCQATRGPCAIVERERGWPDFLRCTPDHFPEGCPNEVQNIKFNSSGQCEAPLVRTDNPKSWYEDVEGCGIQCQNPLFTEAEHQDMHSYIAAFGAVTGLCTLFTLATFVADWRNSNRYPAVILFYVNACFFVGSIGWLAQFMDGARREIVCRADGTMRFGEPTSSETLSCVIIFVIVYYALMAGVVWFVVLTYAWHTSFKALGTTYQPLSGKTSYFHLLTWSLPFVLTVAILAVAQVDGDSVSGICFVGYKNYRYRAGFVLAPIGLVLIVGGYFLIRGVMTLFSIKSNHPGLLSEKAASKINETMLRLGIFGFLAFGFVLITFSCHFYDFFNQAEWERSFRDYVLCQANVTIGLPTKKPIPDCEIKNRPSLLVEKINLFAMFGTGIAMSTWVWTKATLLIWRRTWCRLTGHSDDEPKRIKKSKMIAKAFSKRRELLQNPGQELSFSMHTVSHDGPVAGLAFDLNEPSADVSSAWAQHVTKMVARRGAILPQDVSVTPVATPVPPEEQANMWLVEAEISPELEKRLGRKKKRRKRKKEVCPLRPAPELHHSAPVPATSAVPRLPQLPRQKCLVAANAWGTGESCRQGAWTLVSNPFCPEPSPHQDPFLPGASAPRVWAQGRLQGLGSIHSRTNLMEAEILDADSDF

[8] = biological target: T3, SMO-WT (Homo sapiens, UniProt Q99835); experiment: Gli-luciferase reporter assay in C3H10T½ cells transfected with SMO-WT; format: cell-based
T3 construct: expressed in transfected cells; host or cells: C3H10T½ cells (reporter assay)
T3 sequence (Q99835 28-787): as the sequence (Q99835 28-787 D473H) above, with H446D counted along it

[9] = system: human hepatocytes; experiment: Metabolism by human hepatocytes; format: in vitro ADME; conditions: unpublished observation
[10] = system: pAKT and pS6 (PI3K pathway); experiment: Immunoblot of activated AKT and S6 in MB allograft tumors; format: in vivo, mouse; conditions: 6-hour treatment with GDC-0941
Protocol: Immunoblotting. Frozen tumor samples were lysed in M-PER Mammalian Protein Extraction Reagent (Pierce) containing protease and phosphatase inhibitors. Lysates were separated on 4-12% Bis-Tris gels and proteins were transferred onto PVDF membranes with an iBlot (Invitrogen). Blots were blocked and incubated overnight at 4° C. with 5% milk containing one of the following primary antibodies; anti-cyclin D1 (Cell Signaling, #2922), anti-phospho(Ser473)-AKT (Cell Signaling, #4060), anti-total AKT (Cell Signaling #9272), anti-Gli2 (Cho A. et al. (2008) Dev. Biol. 321:27-39), or anti-actin (Santa Cruz Biotechnology, sc-47778), followed by a 1 h incubation at RT with appropriate HRP-conjugated secondary antibodies. Antigen-antibody interactions were visualized with SuperSignal West Dura Extended Duration Substrate (Pierce).

[11] = system: control and GDC-0449-resistant MB allografts; experiment: Tumor growth of control and GDC-0449-resistant MB allografts, PI3K inhibitor study; format: in vivo, mouse; conditions: GDC-0941 150 mg kg−1 once daily, oral, SG102, SG152, SG274
Source text: as §1

[12] = 5 μM for cyclopamine, 1 μM for the others

CNC1CCC(N(Cc2cccc(-c3ccncc3)c2)C(=O)c2sc3ccccc3c2Cl)CC1 (stereo not drawn) [SAG]
ciliary accumulation of Smo in the absence of Hh stimulation [1, 12]: robust translocation of Smo to the primary odium

O=C(Nc1ccc(Cl)c(NC(=O)c2cccc(Cl)c2)c1)c1ccc(N2CCC(O)CC2)nc1 [Compound 4]
activity against SMO-D473H, inhibition of Gli-luciferase activity [2]: improved potencies
pharmacokinetic properties in mice [3]: cleared much more rapidly from the blood stream than compound 5

Cc1nn(-c2ccccc2)c(C)c1/C=N/N1CCN(Cc2ccccc2)CC1 [SANT-1]
Shh and agonist-induced translocation of Smo to the cilium [4]: prevented Shh and agonist-induced translocation of Smo
activity against SMO-D473H, inhibition of Gli-luciferase activity [2]: partially resistant; also recorded: neither cyclopamine nor SANT-1 can fully inhibit Smo-D473H
Hh-induced Smo translocation to the primary cilium ([1]; 200 ng/ml octyl-Shh, 5 μM for cyclopamine, 1 μM for the others): prevented Hh-induced Smo translocation
ciliary accumulation of Smo in the absence of Hh stimulation [1, 12]: did not promote ciliary enrichment

CS(=O)(=O)c1ccc(C(=O)Nc2ccc(Cl)c(NC(=O)c3ccccc3)c2)c(Cl)c1 [Compound 3]
activity against SMO-D473H, inhibition of Gli-luciferase activity [2]: measurable activity

KAAD-cyclopamine
ciliary accumulation of Smo in the absence of Hh stimulation [1, 12]: partially induced ciliary translation

C[C@@H]1CN(c2ccc(C(=O)Nc3ccc(Cl)c(NC(=O)c4cccc(Cl)c4)c3)cn2)C[C@H](C)N1 [Compound 5]
tumor growth of SG274 allografts [5]: not only stopped growing but even started to shrink
IC50 ([2]; SMO-D473H transfected C3H10T½ cells, read-out: IC50, inhibition of Gli-luciferase reporter activity): 0.7 µM
inhibition of SMO-D473H, Gli-luciferase reporter dose response ([2]; dose response): can inhibit the drug-resistant mutant
activity against SMO-D473H, inhibition of Gli-luciferase activity [2]: improved potencies
half-life ([3]; female, CD-1, mouse, mice, single oral 100 mg kg−1 dose, plasma, read-out: terminal half-life (t1/2) (converted)): ~22 h
pharmacokinetic properties in mice [3]: good pharmacokinetic properties in mice
Gli1 mRNA levels in SG274 tumors [6]: downregulation in Gli1 mRNA levels
less compound sufficient to inhibit endogenous SMO than in SMO overexpression assay [7]: approximately 10 fold
activity against wild type SMO, Gli-luciferase reporter ([8]; SMO-WT overexpression in C3H10T½ cells): less potent against SMO-WT than GDC-0449
IC50 ([8]; SMO-WT transfected C3H10T½ cells, read-out: IC50, inhibition of GLI-luciferase reporter activity): 0.3 µM
effect on Smo localization compared with GDC-0449 [1]: very similar effects on Smo localization

CCOc1cc(C(=O)Nc2ccc(Cl)c(-c3nc4ccccc4[nH]3)c2)cc(OCC)c1OCC [HhAntag]
activity against SMO-D473H, inhibition of Gli-luciferase activity [2]: essentially equipment against all SMO alleles
metabolism by human hepatocytes [9]: rapidly metabolized by human hepatocytes
effect on Smo localization compared with GDC-0449 [1]: very similar effects on Smo localization

CC1=C2C[C@H]3[C@@H](CC=C4C[C@@H](O)CC[C@@]43C)[C@@H]2CC[C@]12O[C@@H]1C[C@H](C)CN[C@H]1[C@H]2C [cyclopamine]
activity against SMO-D473H, inhibition of Gli-luciferase activity [2]: partially resistant; also recorded: neither cyclopamine nor SANT-1 can fully inhibit Smo-D473H
ciliary accumulation of Smo in the absence of Hh stimulation [1, 12]: robust translocation of Smo to the primary odium

CS(=O)(=O)N1CCN(Cc2cc3nc(-c4cccc5[nH]ncc45)nc(N4CCOCC4)c3s2)CC1 [GDC-0941]
pAKT and pS6 levels in tumors [10]: decreased pAKT and pS6 levels
tumor growth of control and resistant MB allograft models [11]: greatly reduced tumor growth
